Source: paper PMC7366380, “Discovery of a Potent and Selective Covalent Inhibitor and Activity-Based Probe for the Deubiquitylating Enzyme UCHL1, with Antifibrotic Activity” (Journal of the American Chemical Society, 2020)
Several values for one entry are separate records, joined by “and”; a condition that tells them apart may be missing. Identical values can stand only once.

Experiments:
USP4 = biological target: T1, USP4 (Homo sapiens, UniProt Q13107); test: Biochemical DUB selectivity profiling assay: USP4; conditions: Ub-Lys-TAMRA 50 nM, buffer A; read-out: Biochemical IC50 range, USP4
T1 sequence (Q13107 1-963): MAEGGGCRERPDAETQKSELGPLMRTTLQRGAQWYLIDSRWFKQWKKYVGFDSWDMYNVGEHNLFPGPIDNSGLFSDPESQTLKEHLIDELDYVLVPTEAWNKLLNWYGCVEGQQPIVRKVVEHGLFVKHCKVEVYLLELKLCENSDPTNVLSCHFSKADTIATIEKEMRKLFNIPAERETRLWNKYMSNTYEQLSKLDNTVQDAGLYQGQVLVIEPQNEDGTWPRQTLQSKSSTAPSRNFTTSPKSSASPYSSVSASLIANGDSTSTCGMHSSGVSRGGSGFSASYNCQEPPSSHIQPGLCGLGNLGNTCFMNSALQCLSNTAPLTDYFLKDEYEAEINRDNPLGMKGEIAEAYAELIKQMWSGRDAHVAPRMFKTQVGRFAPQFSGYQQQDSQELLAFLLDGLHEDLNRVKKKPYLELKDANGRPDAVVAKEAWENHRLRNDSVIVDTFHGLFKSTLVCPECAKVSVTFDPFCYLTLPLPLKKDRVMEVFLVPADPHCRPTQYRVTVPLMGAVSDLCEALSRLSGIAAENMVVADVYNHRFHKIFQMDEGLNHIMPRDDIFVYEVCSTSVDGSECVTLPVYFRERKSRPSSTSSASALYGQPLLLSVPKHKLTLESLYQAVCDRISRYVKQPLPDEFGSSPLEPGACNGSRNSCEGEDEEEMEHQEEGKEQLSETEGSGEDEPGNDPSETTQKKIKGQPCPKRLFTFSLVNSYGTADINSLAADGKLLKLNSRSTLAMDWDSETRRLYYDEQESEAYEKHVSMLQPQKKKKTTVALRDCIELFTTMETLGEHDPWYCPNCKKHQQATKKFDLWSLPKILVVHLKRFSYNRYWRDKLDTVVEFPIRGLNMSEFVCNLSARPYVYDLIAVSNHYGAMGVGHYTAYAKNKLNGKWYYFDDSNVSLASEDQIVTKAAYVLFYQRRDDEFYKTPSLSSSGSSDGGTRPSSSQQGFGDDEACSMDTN
Experimental: DUB Assay Substrate Substrate
Buffer Concentration (nM) […]
Sepharose® 4B resin (GE Healthcare).
10 kDa molecular weight cut-off (MWCO)).
Fractions containing protein
Protein concentration was […]
reaction volume of 21 μL. […]
compound (final concentration 5 nM).
IC50 values were determined
Biochemical DUB selectivity profiling assays […]
in 40 µL total reaction volume.

[1] = biological target: T2, DUBs and other proteins in HEK293 cells (Homo sapiens, UniProt Q9Y5K5); test: In-cell proteome-wide competitive ABPP, HEK293: other DUBs and proteins; conditions: replicates A-C; for Log2 reporter intensity values: UCHL5: competition with ABP 2, DMSO substract (FC); for Log2 reporter intensity values: UCHL5, DMSO subtracted
T2 sequence (Q9Y5K5 1-329): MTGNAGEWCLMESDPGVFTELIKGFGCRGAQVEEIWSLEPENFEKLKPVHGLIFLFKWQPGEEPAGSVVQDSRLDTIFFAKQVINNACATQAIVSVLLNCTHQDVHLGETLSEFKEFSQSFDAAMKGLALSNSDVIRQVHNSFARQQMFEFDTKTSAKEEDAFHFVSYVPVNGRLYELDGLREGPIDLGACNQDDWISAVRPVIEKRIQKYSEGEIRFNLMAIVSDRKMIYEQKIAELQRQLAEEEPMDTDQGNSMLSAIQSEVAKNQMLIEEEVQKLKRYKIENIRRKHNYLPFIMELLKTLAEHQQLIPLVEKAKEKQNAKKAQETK

[2] = biological target: DUBs and other proteins in HEK293 cells (Homo sapiens, UniProt Q96BN8); test: as above; conditions: replicates A-C; for Log2 reporter intensity values: OTULIN: competition with ABP 2, DMSO substract (FC); for Log2 reporter intensity values: OTULIN, DMSO subtracted
DUBs and other proteins in HEK293 cells (Homo sapiens, UniProt Q96BN8), sequence (Q96BN8 whole entry): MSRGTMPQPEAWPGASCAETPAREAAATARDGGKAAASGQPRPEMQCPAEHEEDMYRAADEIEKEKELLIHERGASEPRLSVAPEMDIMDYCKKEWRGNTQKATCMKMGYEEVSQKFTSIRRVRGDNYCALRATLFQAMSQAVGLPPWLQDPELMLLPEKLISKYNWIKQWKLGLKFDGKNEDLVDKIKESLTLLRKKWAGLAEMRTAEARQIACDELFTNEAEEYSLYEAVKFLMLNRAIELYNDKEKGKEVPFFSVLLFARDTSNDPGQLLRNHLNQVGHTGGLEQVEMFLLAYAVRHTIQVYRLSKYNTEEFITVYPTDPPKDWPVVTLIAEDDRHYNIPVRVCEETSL

[3] = biological target: DUBs and other proteins in HEK293 cells (Homo sapiens, UniProt Q6P2Q9); test: as above; conditions: replicates A-C; for Log2 reporter intensity values: PRPF8: competition with ABP 2, DMSO substract (FC); for Log2 reporter intensity values: PRPF8, DMSO subtracted
[4] = biological target: DUBs and other proteins in HEK293 cells (Homo sapiens, UniProt Q92905); test: as above; conditions: for Log2 reporter intensity values, COPS5: TMT replicates; for Log2 reporter intensity values: COPS5: competition with ABP 2, DMSO substract (FC); for Log2 reporter intensity values: COPS5 / Log2 reporter intensity values: replicates A-C; for Log2 t-test Difference / Log2 reporter intensity values: COPS5
DUBs and other proteins in HEK293 cells (Homo sapiens, UniProt Q92905), sequence (Q92905 whole entry): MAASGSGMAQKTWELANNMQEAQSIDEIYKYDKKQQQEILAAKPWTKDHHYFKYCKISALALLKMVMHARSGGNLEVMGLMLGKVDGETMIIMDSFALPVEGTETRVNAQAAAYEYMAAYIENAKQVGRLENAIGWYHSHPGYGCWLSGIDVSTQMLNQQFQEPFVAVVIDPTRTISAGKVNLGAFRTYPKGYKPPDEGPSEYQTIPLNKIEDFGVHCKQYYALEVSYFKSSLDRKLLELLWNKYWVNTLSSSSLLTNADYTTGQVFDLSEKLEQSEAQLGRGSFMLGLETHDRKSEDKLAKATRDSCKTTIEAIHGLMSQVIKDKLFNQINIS

N#CN1CCC[C@H]1C(=O)N1CCc2c(-c3c[nH]c4ncccc34)cccc21 [Compound 1]
IC50 (USP4): > 10 µM
Log2 reporter intensity values: UCHL5 ([1]; 1 at 1 μM): 1.121 and 1.059 and 1.084
Log2 reporter intensity values: UCHL5 ([1]; 1 at 4 μM): 1.068 (2×) and 1.07
Log2 reporter intensity values ([1]; 1_1 μM): 0.1208 and 0.05828 and 0.08364
Log2 reporter intensity values ([1]; 1_4 μM): 0.06718 and 0.06755 and 0.06936
Log2 reporter intensity values ([1]; 1 at 1 μM): 0.1653 and 0.08265 and 0.1168
Log2 reporter intensity values ([1]; 1 at 4 μM): 0.09472 and 0.09521 and 0.09766
Log2 reporter intensity values: OTULIN ([2]; 1 at 1 μM): 1.158 and 1.113 and 1.037
Log2 reporter intensity values: OTULIN ([2]; 1 at 4 μM): 1.068 and 1.004 and 1.156
Log2 reporter intensity values ([2]; 1_1 μM): 0.1579 and 0.1121 and 0.03603
Log2 reporter intensity values ([2]; 1_4 μM): 0.06743 and 0.003361 and 0.1557
Log2 reporter intensity values ([2]; 1 at 1 μM): 0.2122 and 0.154 and 0.0518
Log2 reporter intensity values ([2]; 1 at 4 μM): 0.09485 and 0.0056 and 0.2094
Log2 reporter intensity values: PRPF8 ([3]; 1 at 1 μM): 0.961 and 0.941 and 0.9412
Log2 reporter intensity values: PRPF8 ([3]; 1 at 4 μM): 0.9254 and 0.9448 and 0.8776
Log2 reporter intensity values ([3]; 1_1 μM): -0.03926 and -0.05927 and -0.05901
Log2 reporter intensity values ([3]; 1_4 μM): -0.07482 and -0.05547 and -0.1226
Log2 reporter intensity values ([3]; 1 at 1 μM): -0.05742 and -0.08778 and -0.08738
Log2 reporter intensity values ([3]; 1 at 4 μM): -0.1118 and -0.08196 and -0.1883
Log2 reporter intensity values, COPS5 ([4]; 1 μM 1 (60 min) + 20 nM ABP 2 (10 min), All values): -0.01371 and -0.03292 and 0.07504
Log2 reporter intensity values, COPS5 ([4]; 1 μM 1 (60 min) + 20 nM ABP 2 (10 min), DMSO subtracted): 0.04441 and 0.02519 and 0.1332
Log2 reporter intensity values, COPS5 ([4]; 4 μM 1 (60 min) + 20 nM ABP 2 (10 min), All values): 0.02465 and -0.01344 and 0.1212
Log2 reporter intensity values, COPS5 ([4]; 4 μM 1 (60 min) + 20 nM ABP 2 (10 min), DMSO subtracted): 0.08277 and 0.04467 and 0.1793
Log2 reporter intensity values: COPS5 ([4]; 1 at 1 μM): 1.031 and 1.018 and 1.097
Log2 reporter intensity values: COPS5 ([4]; 1 at 4 μM): 1.059 and 1.031 and 1.132
Log2 t-test Difference ([4]; 1 - 1 μM): -0.09474
Log2 t-test Difference ([4]; 1 - 4 μM): -0.06006
Log2 reporter intensity values ([4]; 1_1 μM, DMSO subtracted): 0.03118 and 0.01753 and 0.09661
Log2 reporter intensity values ([4]; 1_4 μM, DMSO subtracted): 0.05896 and 0.03137 and 0.1323
Log2 reporter intensity values ([4]; 1 at 1 μM, DMSO subtracted): 0.04441 and 0.02519 and 0.1332
Log2 reporter intensity values ([4]; 1 at 4 μM, DMSO subtracted): 0.08277 and 0.04467 and 0.1793

N#CN1CCC[C@@H]1C(=O)N1CCc2c(-c3c[nH]c4ncccc34)cccc21 [Compound 3]
IC50 (USP4): > 10 µM
Log2 reporter intensity values: UCHL5 ([1]; 3 at 1 μM): 1.151 and 1.125 and 1.14
Log2 reporter intensity values: UCHL5 ([1]; 3 at 4 μM): 0.8761 and 0.9259 and 0.9496
Log2 reporter intensity values ([1]; 3_1 μM): 0.1503 and 0.124 and 0.1395
Log2 reporter intensity values ([1]; 3_4 μM): -0.1246 and -0.07482 and -0.05103
Log2 reporter intensity values ([1]; 3 at 1 μM): 0.2029 and 0.1696 and 0.1893
Log2 reporter intensity values ([1]; 3 at 4 μM): -0.1908 and -0.1111 and -0.07454
Log2 reporter intensity values: OTULIN ([2]; 3 at 1 μM): 1.194 and 0.9889 and 0.9216
Log2 reporter intensity values: OTULIN ([2]; 3 at 4 μM): 0.8963 and 0.9821 and 1.002
Log2 reporter intensity values ([2]; 3_1 μM): 0.1933 and -0.01163 and -0.07888
Log2 reporter intensity values ([2]; 3_4 μM): -0.1043 and -0.01848 and 0.001875
Log2 reporter intensity values ([2]; 3 at 1 μM): 0.2556 and -0.01611 and -0.1177
Log2 reporter intensity values ([2]; 3 at 4 μM): -0.158 and -0.02613 and 0.003463
Log2 reporter intensity values: PRPF8 ([3]; 3 at 1 μM): 0.9503 and 0.8885 and 0.9546
Log2 reporter intensity values: PRPF8 ([3]; 3 at 4 μM): 0.9411 and 0.9829 and 0.9624
Log2 reporter intensity values ([3]; 3_1 μM): -0.0499 and -0.1118 and -0.04563
Log2 reporter intensity values ([3]; 3_4 μM): -0.05909 and -0.0173 and -0.03782
Log2 reporter intensity values ([3]; 3 at 1 μM): -0.07348 and -0.1706 and -0.06701
Log2 reporter intensity values ([3]; 3 at 4 μM): -0.08751 and -0.02483 and -0.05526
Log2 reporter intensity values, COPS5 ([4]; 1 μM 3 (60 min) + 20 nM ABP 2 (10 min), All values): 0.001825 and 0.1477 and 0.03353
Log2 reporter intensity values, COPS5 ([4]; 1 μM 3 (60 min) + 20 nM ABP 2 (10 min), DMSO subtracted): 0.05994 and 0.2058 and 0.09165
Log2 reporter intensity values, COPS5 ([4]; 4 μM 3 (60 min) + 20 nM ABP 2 (10 min), All values): -0.03978 and -0.2063 and -0.1486
Log2 reporter intensity values, COPS5 ([4]; 4 μM 3 (60 min) + 20 nM ABP 2 (10 min), DMSO subtracted): 0.01834 and -0.1481 and -0.09052
Log2 reporter intensity values: COPS5 ([4]; 3 at 1 μM): 1.042 and 1.153 and 1.066
Log2 reporter intensity values: COPS5 ([4]; 3 at 4 μM): 1.013 and 0.9024 and 0.9392
Log2 t-test Difference ([4]; 3 - 1 μM): -0.04319
Log2 t-test Difference ([4]; 3 - 4 μM): -0.2358
Log2 reporter intensity values ([4]; 3_1 μM, DMSO subtracted): 0.04234 and 0.1532 and 0.0655
Log2 reporter intensity values ([4]; 3_4 μM, DMSO subtracted): 0.01271 and -0.09767 and -0.0609
Log2 reporter intensity values ([4]; 3 at 1 μM, DMSO subtracted): 0.05994 and 0.2058 and 0.09165
Log2 reporter intensity values ([4]; 3 at 4 μM, DMSO subtracted): 0.01834 and -0.1481 and -0.09052
